According to the supplement of paper PMC10307832:

Experiments:
Experiment in all cases: relative viability (nuclei count vs DMSO), 5 days (fraction); higher = more cells survive
[1] = compound: CC1=C(C(=NN1)C)CC2=C(C3=C(S2)N(C(=O)N(C3=O)C)CC(C)C)C(=O)N4C[C@@H](CO4)O + COc1cc2c(Oc3ccc(NC(=O)C4(C(=O)Nc5ccc(F)cc5)CC4)cc3F)ccnc2cc1OCCCN1CCOCC1 [Foretinib] (partner 0.25 µM)
Method in brief: (§1)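 Relative viability is defined as nuclei in treated wells over nuclei in vehicle wells. Duplicate plates were run and medians reported. Lung cancer cell lines in 1536-well plates were dosed by pin tool one day after seeding, with one drug or with a fixed anchor-drug dose plus five library-drug doses (not always all listed) in √10 steps, and nuclei were counted after 5 days.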

[2] = compound: CC1=C(C(=NN1)C)CC2=C(C3=C(S2)N(C(=O)N(C3=O)C)CC(C)C)C(=O)N4C[C@@H](CO4)O + O=C(CCCCCCC(=O)Nc1ccccc1)NO [Vorinostat] (partner 1 µM)
Method in brief: as §1

IDH-C35 + Navitoclax = compound: Cc1ccccc1C(C(=O)NC1CCCCC1)N(C(=O)Cn1ccnc1C)c1cccc(F)c1 [IDH-C35] + CC1(C)CCC(c2ccc(Cl)cc2)=C(CN2CCN(c3ccc(C(=O)NS(=O)(=O)c4ccc(N[C@H](CCN5CCOCC5)CSc5ccccc5)c(S(=O)(=O)C(F)(F)F)c4)cc3)CC2)C1 [Navitoclax] (partner 0.5 µM)
Method in brief: as §1

IDH-C35 + Trametinib = compound: Cc1ccccc1C(C(=O)NC1CCCCC1)N(C(=O)Cn1ccnc1C)c1cccc(F)c1 [IDH-C35] + CC(=O)Nc1cccc(-n2c(=O)n(C3CC3)c(=O)c3c(Nc4ccc(I)cc4F)n(C)c(=O)c(C)c32)c1 [Trametinib] (partner 0.02 µM)
Method in brief: as §1

Cell Line	relative viability ([1]; first compound 0.0025 µM)	relative viability ([1]; first compound 0.007906 µM)	relative viability ([1]; first compound 0.025 µM)	relative viability ([1]; first compound 0.07906 µM)	relative viability ([1]; first compound 0.25 µM)	relative viability ([2]; first compound 0.0025 µM)	relative viability ([2]; first compound 0.007906 µM)	relative viability ([2]; first compound 0.025 µM)	relative viability ([2]; first compound 0.07906 µM)	relative viability ([2]; first compound 0.25 µM)	relative viability (IDH-C35 + Navitoclax; first compound 0.08 µM)	relative viability (IDH-C35 + Navitoclax; first compound 0.253 µM)	relative viability (IDH-C35 + Navitoclax; first compound 0.8 µM)	relative viability (IDH-C35 + Navitoclax; first compound 2.53 µM)	relative viability (IDH-C35 + Navitoclax; first compound 8 µM)	relative viability (IDH-C35 + Trametinib; first compound 0.08 µM)	relative viability (IDH-C35 + Trametinib; first compound 0.253 µM)	relative viability (IDH-C35 + Trametinib; first compound 0.8 µM)	relative viability (IDH-C35 + Trametinib; first compound 2.53 µM)	relative viability (IDH-C35 + Trametinib; first compound 8 µM)
NCI-H2085	0.965	0.803	0.957	0.796	0.827	0.829	0.791	0.78	0.797	0.514	1.21	1.25	1.15	1.14	1.21	0.634	0.493	0.571	0.729	0.457
NCI-H2087	1.05	1.05	1.03	0.811	1.07	0.841	0.581	0.578	0.462	0.875	1.13	1.02	0.896	0.867	0.999	0.211	0.226	0.264	0.265	0.197
NCI-H2126	1.28	0.958	1.03	1.29	0.947	0.919	0.894	0.844	0.84	0.674	0.906	0.864	0.849	0.866	0.857	0.568	0.563	0.564	0.519	0.537
NCI-H2170	0.989	1.09	0.984	0.972	1.08	0.82	0.792	0.779	0.749	0.864	0.626	0.535	0.595	0.479	0.627	0.855	0.864	0.882	0.85	0.93
NCI-H2228	0.828	1.04	0.734	0.83	1.08	0.559	0.811	0.681	0.649	0.9	0.915	1.18	1.29	0.875	0.706	0.456	0.559	0.458	0.836	0.546
NCI-H2347	1.23	1.13	0.716	0.831	0.881	0.588	0.624	0.544	0.559	0.431	0.766	0.765	0.801	0.851	0.742	0.342	0.281	0.323	0.28	0.283
NCI-H2405	1.09	1.05	–	0.978	1.01	1.13	1.07	0.849	0.96	0.888	0.926	0.981	0.918	–	0.76	0.66	0.679	0.59	0.58	0.589
NCI-H3122	0.936	0.982	0.988	0.99	0.983	1.03	1.12	1.1	0.731	0.918	1.03	0.997	0.96	1.01	1.08	0.22	0.249	0.21	0.236	0.212
PC-3 [JPC-3]	1.14	1.01	1.05	1.02	1.08	0.853	0.898	0.741	0.972	0.797	0.789	0.718	0.778	0.858	0.74	0.65	0.745	0.725	0.758	0.67
PC-14	0.973	0.936	0.941	0.942	1.09	0.824	0.885	0.692	0.824	0.982	1.11	1.03	0.966	1.04	0.98	0.645	0.695	0.735	0.768	0.705
RERF-LC-KJ	0.866	0.942	0.909	0.886	0.935	0.738	0.814	0.66	0.696	0.767	0.901	0.735	1.02	1.25	0.832	0.846	0.831	0.868	0.904	0.779
SK-LU-1	0.659	0.556	0.527	0.492	0.548	0.744	0.528	0.571	0.611	0.611	0.788	0.682	0.804	1.01	0.652	0.454	0.489	0.507	0.485	0.536
SK-MES-1	0.901	1.06	1.02	0.954	0.991	1.19	1.23	1.1	1.05	1.16	1.18	1.03	1.28	1.14	1.27	0.513	0.6	0.581	0.567	0.45
SW 1573	0.958	1.05	0.86	0.74	0.964	0.795	0.714	0.792	0.679	0.782	0.964	1.07	1.07	0.841	1.02	0.491	0.793	0.531	0.571	0.518
